According to the supplement of paper PMC11451515:

System: SEM cells
Experiment: cell viability relative to DMSO control; higher = less cytotoxic
Conditions: 48 h
Method in brief: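 Viability, reported as a per-plate percentage of DMSO wells with cell-free wells as background, came from CellTiter-Glo One luminescence. Reading took place after 48 h at 37°C. Before that, NOMO1 or SEM (500 cells/well) or P12-Ichikawa (1000 cells/well) leukemia cells, adapted for at least four passages in each medium, were seeded in 1536-well plates (5 μl) and pin-dosed with library compounds in DMSO, 47 μM to 0.79 nM over 11 threefold points.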

[1] = RPMI 5 mM glucose + 10% FBS, 0.000781 µM
[2] = RPMI 5 mM glucose + 10% FBS, 0.00234 µM
[3] = RPMI 5 mM glucose + 10% FBS, 0.00702 µM
[4] = RPMI 5 mM glucose + 10% FBS, 0.0211 µM
[5] = RPMI 5 mM glucose + 10% FBS, 0.0632 µM
[6] = RPMI 5 mM glucose + 10% FBS, 0.19 µM
[7] = RPMI 5 mM glucose + 10% FBS, 0.569 µM
[8] = RPMI 5 mM glucose + 10% FBS, 1.71 µM
[9] = RPMI 5 mM glucose + 10% FBS, 5.12 µM
[10] = RPMI 5 mM glucose + 10% FBS, 15.4 µM
[11] = RPMI 5 mM glucose + 10% FBS, 46.1 µM
[12] = RPMI 5 mM glucose + 10% dialyzed FBS, 0.000781 µM
[13] = RPMI 5 mM glucose + 10% dialyzed FBS, 0.00234 µM
[14] = RPMI 5 mM glucose + 10% dialyzed FBS, 0.00702 µM
[15] = RPMI 5 mM glucose + 10% dialyzed FBS, 0.0211 µM
[16] = RPMI 5 mM glucose + 10% dialyzed FBS, 0.0632 µM
[17] = RPMI 5 mM glucose + 10% dialyzed FBS, 0.19 µM
[18] = RPMI 5 mM glucose + 10% dialyzed FBS, 0.569 µM
[19] = RPMI 5 mM glucose + 10% dialyzed FBS, 1.71 µM
[20] = RPMI 5 mM glucose + 10% dialyzed FBS, 5.12 µM
[21] = RPMI 5 mM glucose + 10% dialyzed FBS, 15.4 µM
[22] = RPMI 5 mM glucose + 10% dialyzed FBS, 46.1 µM
[23] = HPLM + 10% dialyzed FBS, 0.000781 µM
[24] = HPLM + 10% dialyzed FBS, 0.00234 µM
[25] = HPLM + 10% dialyzed FBS, 0.00702 µM
[26] = HPLM + 10% dialyzed FBS, 0.0211 µM
[27] = HPLM + 10% dialyzed FBS, 0.0632 µM
[28] = HPLM + 10% dialyzed FBS, 0.19 µM
[29] = HPLM + 10% dialyzed FBS, 0.569 µM
[30] = HPLM + 10% dialyzed FBS, 1.71 µM
[31] = HPLM + 10% dialyzed FBS, 5.12 µM
[32] = HPLM + 10% dialyzed FBS, 15.4 µM
[33] = HPLM + 10% dialyzed FBS, 46.1 µM

SMILES	cell viability [1]	cell viability [2]	cell viability [3]	cell viability [4]	cell viability [5]	cell viability [6]	cell viability [7]	cell viability [8]	cell viability [9]	cell viability [10]	cell viability [11]	cell viability [12]	cell viability [13]	cell viability [14]	cell viability [15]	cell viability [16]	cell viability [17]	cell viability [18]	cell viability [19]	cell viability [20]	cell viability [21]	cell viability [22]	cell viability [23]	cell viability [24]	cell viability [25]	cell viability [26]	cell viability [27]	cell viability [28]	cell viability [29]	cell viability [30]	cell viability [31]	cell viability [32]	cell viability [33]
CN1[C@@H]2CC(O)C[C@H]1[C@@H]1O[C@@H]12 (stereo partly drawn)	124%	123%	114%	19.5%	134%	115%	109%	130%	115%	109%	7.57%	101%	126%	116%	21.8%	103%	111%	103%	106%	94.3%	81.4%	5.54%											
Cn1cc(-c2ccc3ncc(Cc4ccc5ncccc5c4)n3n2)cn1	113%	117%	122%	109%	131%	122%	115%	107%	123%	74%	79.4%	96.2%	103%	102%	101%	112%	109%	111%	106%	98.8%	71.2%	67.3%	93.2%	108%	103%	98.8%	101%	112%	94.3%	99.5%	89.9%	72.8%	71%
N#Cc1c(C2CCNCC2)cc(-c2c(O)cccc2OCC2CC2)nc1N	103%	107%	106%	115%	121%	110%	97.3%	118%	102%	82.8%	29%	98.7%	108%	104%	104%	106%	108%	101%	98.1%	85.3%	72.6%	43.7%	108%	106%	107%	109%	114%	115%	108%	108%	100%	77.4%	34.2%
CC(C)[C@@H](N(CCCN)C(=O)C1=CC=C(C)C=C1)C/2=C(\CC3=CC=CC=C3)C(=O)C4=C(O2)C=C(Cl)C=C4	13.8%	20.2%	19.9%	22.5%	20%	22.6%	22.4%	19.1%	27.9%	20.9%	13.9%	18.5%	20.5%	20%	25.6%	19.4%	26.5%	20%	21.1%	20.8%	18.5%	19.4%	22.2%	26.3%	24.4%	24.6%	26.6%	23.9%	28.2%	25.2%	25.7%	26.6%	5.56%
CC1=CC2=C(O1)C(=C3OC(=O)\C=C(C)/C3=C2)C	72%	91.5%	93.7%	96.8%	86.7%	103%	98.3%	103%	105%	92.2%	91%	89%	100%	94.8%	102%	93.4%	107%	109%	104%	121%	111%	105%	70.2%	81.2%	86.8%	88.7%	84%	84.5%	83.8%	92.5%	90.6%	88.9%	74.1%
COc1ccc(CCC(=O)Nc2nc3ccc(Cl)cc3s2)cc1OC	112%	92.8%	108%	102%	123%	127%	124%	126%	115%	104%	95%	120%	102%	105%	113%	120%	107%	101%	121%	102%	117%	105%	104%	114%	121%	111%	120%	104%	116%	112%	132%	116%	111%
COc1ccc([C@@H]2CNC(=O)C2)cc1OC1CCCC1	76.9%	101%	92.3%	93.7%	100%	98.6%	92%	95.5%	103%	95.6%	98%	97.1%	94.3%	97.9%	70.6%	97.4%	103%	104%	106%	99.6%	97.6%	90.9%	83.1%	90.7%	93.9%	102%	103%	103%	96.2%	114%	114%	111%	93.2%
CCCn1c(=O)c2[nH]c(C34CC5CC3C[C@@H](C5)C4)nc2n(CCC)c1=O	50.7%	44.7%	84.2%	94.6%	107%	101%	94.1%	97.2%	94.8%	91.1%	84.4%	91.6%	73.2%	116%	130%	117%	110%	118%	109%	101%	91.5%	111%	102%	84.8%	103%	109%	110%	122%	115%	103%	97.9%	95.5%	97.8%
